Assay results reported in patent publication US5393875A, “Amino acid derivatives having renin inhibiting activity” (Hoffmann-La Roche Inc., priority 1991, dated 1995).

Assays:
human renin = target: T1, human renin (Homo sapiens, UniProt P00797); assay: Test A: in vitro test with pure human renin; type: biochemical; details: human tetradecapeptide substrate, pH 7.4, 3 hours at 37° C., angiotensin I by RIA
T1 sequence (P00797 67-406): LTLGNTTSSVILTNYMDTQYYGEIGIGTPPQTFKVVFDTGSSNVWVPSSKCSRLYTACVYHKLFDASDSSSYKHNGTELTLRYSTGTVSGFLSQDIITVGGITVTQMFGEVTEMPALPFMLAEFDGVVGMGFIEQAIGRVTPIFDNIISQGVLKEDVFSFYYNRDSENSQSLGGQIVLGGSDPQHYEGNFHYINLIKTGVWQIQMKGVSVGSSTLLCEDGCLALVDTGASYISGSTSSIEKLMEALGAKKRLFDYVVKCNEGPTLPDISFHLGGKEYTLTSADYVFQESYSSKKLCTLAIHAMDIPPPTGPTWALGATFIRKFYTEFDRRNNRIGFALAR
Experimental: A. In vitro test with pure human renin
The test is carried out in Eppendorf test tubes. The incubation mixture consists of (1) 100 μl of human renin in buffer A (0.1M sodium phosphate solution, pH 7.4, containing 0.1% bovine serum albumin, 0.1% sodium azide and 1 mM ethylenediaminetetraacetic acid), sufficient for a renin activity of 2-3 ng of angiotensin I/ml/hr; (2) 145 μl of buffer A: (3) 30 μl of 10 μM human tetradecapeptide renin substrate (hTD) in 10 mM hydrochloric acid: (4) 15 μl of dimethyl sulphoxide with or without inhibitor and (5) 10 μl of a 0.03 molar solution of hydroxyquinoline sulphate in water.
The samples are incubated for three hours at 37° C. and, respectively, 4° C. in triplicate. 2×100 μl samples per experimental test tube are used in order to measure the production of angiotensin I via RIA (standard radioimmunoassay; clinical assay solid phase kit). Cross reactivities of the antibody used in the RIA are: angiotensin I 100%; angiotensin II 0.0013%; hTD (angiotensin I-Val-Ile-His-Ser-OH 0.09%. The production of angiotensin I is determined by the difference between the experiment at 37° C. and that at 4° C.
(§1) The following controls are carried out:
(a) Incubation of hTD samples without renin and without inhibitor at 37° C. and 4° C. The difference between these two values gives the base value of the angiotensin I production.
(b) Incubation of hTD samples with renin, but without inhibitor at 37° C. and 4° C. The difference between these values gives the maximal value of angiotensin I production.
In each sample the base value of the angiotensin I production is subtracted from the angiotensin I production which is determined. The difference between the maximal value and the base value gives the value of the maximal substrate hydrolysis (=100% ) by renin.
The results are given as IC50 values which denote that concentration of the inhibitor at which the enzymatic activity is inhibited by 50%. The IC50 values are determined from a linear regression curve from a logit-log plot.

renin in human plasma = target: T2, renin in human plasma (Homo sapiens, UniProt P00797); assay: Test B: in vitro test with human plasma; type: biochemical; details: pH 6, 3 hours at 37° C., angiotensin I by RIA
T2 construct: The test solution comprises (1) 225 μl of plasma; from tissue; host or cells: human plasma
T2 sequence (P00797 67-406): T1 sequence (P00797 67-406)
Experimental: B. In vitro test with human plasma
The test solution comprises (1) 225 μl of plasma, (2) 10 μl of 8-hydroxyquinoline sulphate in water, (3) 12 μl of sodium phosphate buffer (0.1M), pH 7.4, and […] of different concentrations of renin inhibitor in dimethyl sulphoxide. Tho resulting pH value (pH 6) of tho test solution is stable for the duration of the subsequent incubation. The test tubes are then incubated at 37° C. for 3 hours. The enzyme activity is expressed by determining the angiotensin I produced, which is determined using a comercially available radioimmunoassay kit (Clinical Assays, Cambridge, Mass.).
as §1
MaxP: Maximal production (maximal enzyme activity) in the absence of a renin inhibitor.
MinP: Minimal production (enzyme activity blank) in the presence of a supramaximal concentration of a renin inhibitor.
The MinP is subtracted from the respective angiotensin production in each experiment. These values are converted into percentage inhibition by comparison with the maximal enzyme activity MaxP-MinP. The degree of inhibition is expressed by the IC50 value, i.e. the concentration of inhibitor which reduces the accumulation of angiotensin I by 50%.

Row | IC50 (human renin) | IC50 (renin in human plasma) | SMILES
1 | 0.061 nM | 0.14 nM | COC(=O)[C@H](NC(=O)OC(C)(C)C)C(C)(C)S(=O)(=O)CC(Cc1ccccc1)C(=O)N[C@@H](Cc1c[nH]cn1)C(=O)N[C@@H](CC1CCCCC1)[C@@H](O)[C@@H](O)C1CC1 (single isomer, unassigned) [C, tert-Butyl [(S)-2-[[(S or R)-2-[[(S)-1-[[(1S,2R,3S)-1-(cyclohexylmethyl)-3-cyclopropyl-2,3-dihydroxypropyl]carbamoyl]-2-imidazol-4-ylethyl]carbamoyl]-3-phenylpropyl]sulfonyl]-1-(methoxycarbonyl)-2-methylpropyl]carbamate]
2 | 0.2 nM | < 0.1 nM | COCC(=O)OCC(C)(C)S(=O)(=O)CC(Cc1ccccc1)C(=O)N[C@@H](Cc1c[nH]cn1)C(=O)N[C@@H](CC1CCCCC1)[C@@H](O)[C@@H](O)C1CC1 (single isomer, unassigned) [D, 2-[[(S or R)-2-[[(S)-1-[[(1S,2R,3S)-1-(cyclohexylmethyl)-3-cyclopropyl-2,3-dihydroxypropyl]carbamoyl]-2-imidazol-4-ylethyl]carbamoyl]-3-phenylpropyl]sulfonyl]-2-methylpropyl methoxyacetate]
3 | 0.3 nM | 0.11 nM | CC(C)(C(=O)N[C@H]1C(O)O[C@H](CO)[C@@H](O)[C@@H]1O)S(=O)(=O)C[C@@H](Cc1ccccc1)C(=O)N[C@@H](Cc1c[nH]cn1)C(=O)N[C@@H](CC1CCCCC1)[C@@H](O)[C@@H](O)C1CC1 (stereo partly drawn) [B, 2-[2-[[(S)-2-[[(S)-1-[[(1S,2R,3S)-1-(Cyclohexylmethyl)-3-cyclopropyl-2,3-dihydroxypropyl]carbamoyl]-2-imidazol-4-ylethyl]carbamoyl]-3-phenylpropyl]sulfonyl]-2-methylpropionamido]-2-deoxy-D-glucopyranose]

Row | SMILES | IC50 (human renin) | IC50 (renin in human plasma)
4 | CC(C)(C(=O)N1CCOCC1)S(=O)(=O)C[C@@H](Cc1ccccc1)C(=O)N[C@@H](Cc1c[nH]cn1)C(=O)N[C@@H](CC1CCCCC1)[C@@H](O)[C@@H](O)C1CC1 [A, (S)-N-[(1S,2R,3S)-1-(Cyclohexylmethyl)-3-cyclopropyl-2,3-dihydroxypropyl]-α-[(S)-α-[[[1-(morpholinocarbonyl)-1-methylethyl]sulfonyl]methyl]hydrocinnamamido]imadazole-4-propionamide] | 0.03 nM | 0.1 nM
